According to patent US8097733B2, “Pyrazole derivatives as 5-LO-inhibitors” (Pfizer Inc., priority 2007, dated 2012):

Legend:
recombinant human 5-LOX = biological target: T1, recombinant human 5-LOX (Homo sapiens, UniProt P09917); test: Fluorescence Intensity 5-LOX Enzyme Assay; assay type: biochemical; details: crude lysate of recombinant human 5-LOX; highest inhibitor concentration tested typically 25 μM
T1 sequence (P09917 1-674): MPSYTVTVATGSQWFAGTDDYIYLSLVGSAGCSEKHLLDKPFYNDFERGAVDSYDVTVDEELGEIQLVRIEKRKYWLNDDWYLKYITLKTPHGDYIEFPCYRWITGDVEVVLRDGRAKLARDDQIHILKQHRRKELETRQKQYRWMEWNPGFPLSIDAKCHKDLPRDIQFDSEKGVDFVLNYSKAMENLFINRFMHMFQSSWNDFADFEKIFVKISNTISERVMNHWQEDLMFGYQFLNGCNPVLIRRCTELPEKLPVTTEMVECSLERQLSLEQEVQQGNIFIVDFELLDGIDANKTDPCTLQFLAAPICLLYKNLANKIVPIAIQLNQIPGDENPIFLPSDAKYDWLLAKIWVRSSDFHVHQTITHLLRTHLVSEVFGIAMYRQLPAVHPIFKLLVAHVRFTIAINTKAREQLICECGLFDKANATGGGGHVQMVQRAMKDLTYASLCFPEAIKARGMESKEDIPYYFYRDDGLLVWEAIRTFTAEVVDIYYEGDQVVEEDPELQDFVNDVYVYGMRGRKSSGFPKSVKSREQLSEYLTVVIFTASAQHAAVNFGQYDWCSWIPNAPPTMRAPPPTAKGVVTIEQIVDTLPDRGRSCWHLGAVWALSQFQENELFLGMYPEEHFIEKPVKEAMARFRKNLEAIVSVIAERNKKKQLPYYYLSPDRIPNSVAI
Method in brief: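 Crude lysate enzyme with H2DCFDA 10 μM (5 min dye pre-incubation), inhibitor pre-incubated 10 min; reaction started with 3 μM arachidonic acid plus 10 μM ATP in Tris pH 7.5, CaCl2, EDTA, 20 min at room temperature, acetonitrile stop. Fluorescein fluorescence; 7-point 4-parameter IC50, top 25 μM, 2.5% DMSO.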

[1] = tested on: human whole blood (leukotriene and prostaglandin levels); test: Eicosanoid production from human whole blood; assay type: cell-based; details: human whole blood stimulated with calcium ionophore A23187 and arachidonic acid; ELISA
Method in brief: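 Pooled heparinized whole blood from healthy or asthmatic donors was preincubated with compound for 10 min at room temperature, with 2.5% DMSO final. It was stimulated with calcium ionophore A23187 plus arachidonic acid (30 μM) in 60% ethanol for 15 min at 37 °C. Plasma leukotrienes and prostaglandins were measured by ELISA.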

[2] = tested on: eicosanoid production in the rat air pouch; test: Carrageenan-induced eicosanoid production in the rat air pouch; assay type: in vivo; details: po, male Lewis rats, 3 mpk by gavage 1 hour prior to carrageenan
Protocol: Carrageenan-Induced Eicosanoid Production in the Rat Air Pouch:
Male Lewis rats (175-200 g), Charles River Laboratories, Wilmington, Mass.) were used in the study. Air pouches were produced by subcutaneous injection of 20 ml of sterile air into the intrascapular area of the back. Pouches were allowed to develop for 1 day. Animals (6 per group) were fasted with free access to water for 16 to 24 hours prior to drug administration. Drugs or vehicle were administered by gavage 1 hour prior to injection of 2 ml of a 1% suspension of carrageenan (FMC BioPolymer, Philadelphia, Pa., Cat. # GP209-NF) dissolved in saline into the pouch. At 3 hours post-carrageenan injection, 1 ml of 50 μg/ml calcium ionophore in saline (A23187, Sigma Chemical Co, St. Louis, M, Cat. #C-7522) was injected into the pouch and the pouch fluid collected 10 minutes later by lavage. The fluid was centrifuged at 3500 rpm for 10 minutes at 4° C., and the supernatants were collected for analysis. Leukotriene and prostaglandin levels were quantitated by ELISA according to the manufacturer's directions (Cayman Chemical Company, Ann Arbor, Mi).

Compound	IC50 (recombinant human 5-LOX) [nM]	IC50 [1] [nM]	inhibition at 3 mg/kg [2] [%]
C[C@H]1C[C@@](C#N)(c2cc(F)cc(Sc3ccc(-c4ccnn4C)c(F)c3)c2)CCO1 [32(1), (2S,4R)-4-(3-fluoro-5-(3-fluoro-4-(1-methyl-1H-pyrazol-5-yl)phenylthio)phenyl)-2-methyl-tetrahydro-2H-pyran-4-carbonitrile]	151	107	93
C[C@H]1C[C@@](C#N)(c2cccc(Sc3ccc(-c4ccnn4C)c(F)c3)c2)CCO1 [30(2), (2S,4R)-4-(3-(3-fluoro-4-(1-methyl-1H-pyrazol-5-yl)phenylthio)phenyl)-2-methyl-tetrahydro-2H-pyran-4-carbonitrile]	113	55.7	95
C[C@H]1C[C@@](C#N)(c2cccc(Sc3ccc(-c4ccnn4C)c(F)c3)c2F)CCO1 [31(1), (2S,4R)-4-(2-fluoro-3-(3-fluoro-4-(1-methyl-1H-pyrazol-5-yl)phenylthio)phenyl)-2-methyl-tetrahydro-2H-pyran-4-carbonitrile]	21.5	59.8	96
Cn1nccc1-c1ccc(Sc2c(F)ccc(C3(C(N)=O)CCOCC3)c2F)cc1 [Example 20, 4-(2,4-difluoro-3-{[4-(1-methyl-1H-pyrazol-5-yl)phenyl]thio}phenyl)-tetrahydro-2H-pyran-4-carboxamide]	225	448	91
C[C@H]1C[C@@](C#N)(c2cccc(Sc3cnc(Oc4ccnn4C)c(Cl)c3)c2F)CCO1 [52(4), (2S,4R)-4-(3-(5-chloro-6-(1-methyl-1H-pyrazol-5-yloxy)pyridin-3-ylthio)-2-fluorophenyl)-2-methyl-tetrahydro-2H-pyran-4-carbonitrile]	29.1	118	97
Cn1ncc(Cl)c1-c1ccc(Sc2cccc(C3(C(N)=O)CCOCC3)c2)cc1 [Example 57, 4-(3-{[4-(4-chloro-1-methyl-1H-pyrazol-5-yl)phenyl]thio}phenyl)tetrahydro-2H-pyran-4-carboxamide]	85.1	514	62
C[C@H]1C[C@@](C(N)=O)(c2ccc(F)c(Sc3ccc(-c4ccnn4C)cc3)c2)CCO1 [Example 23, (2S,4R)-4-(4-fluoro-3-(4-(1-methyl-1H-pyrazol-5-yl)phenylthio)phenyl)-2-methyl-tetrahydro-2H-pyran-4-carboxamide]	39.8	314	76
Cn1nccc1C(=O)c1ccc(Sc2cccc(C3(C(N)=O)CCOCC3)c2)cc1 [Example 34, 4-[3-({4-[(1-methyl-1H-pyrazol-5-yl)carbonyl]phenyl}thio)phenyl]tetrahydro-2H-pyran-4-carboxamide]	40.2	549	99.5
Cn1nccc1-c1ccc(Sc2cccc(C3(C#N)CCOCC3)c2)cc1F [Example 46, 4-(3-{[3-fluoro-4-(1-methyl-1H-pyrazol-5-yl)phenyl]thio}phenyl)tetrahydro-2H-pyran-4-carbonitrile]	4130	539	0
C[C@H]1C[C@@](C(N)=O)(c2cccc(Sc3ccc(C(=O)c4ccnn4C)cc3)c2F)CCO1 [Example 40]	21.9	407	96
Cc1nccn1-c1ccc(Sc2cccc(C3(C(N)=O)CCOCC3)c2)cc1 [(d), 4-(3-(4-(2-methyl-1H-imidazol-1-yl)phenylthio)phenyl)-tetrahydro-2H-pyran-4-carboxamide, reference compound]	877	275	73.1
CNC(=O)C1(c2cccc(Sc3ccc(-c4ccnn4C)cc3)c2)CCOCC1 [Example 10, N-Methyl-4-(3-{[4-(1-methyl-1H-pyrazol-5-yl)phenyl]thio}phenyl)tetrahydro-2H-pyran-4-carboxamide]	287	294	5
CNC(=O)C1(c2cccc(Sc3ccc(-c4ccnn4C)cc3)c2F)CCOCC1 [Example 17, 4-(2-fluoro-3-{[4-(1-methyl-1H-pyrazol-5-yl)phenyl]thio}phenyl)-N-methyl-tetrahydro-2H-pyran-4-carboxamide]	146	962	83
Cn1nccc1-c1ccc(Sc2cc(F)cc(C3(C(N)=O)CCOCC3)c2)cc1 [Example 15, 4-(3-fluoro-5-{[4-(1-methyl-1H-pyrazol-5-yl)phenyl]thio}phenyl)tetrahydro-2H-pyran-4-carboxamide]	264	365	68.5

The next lines start with results.

IC50 (recombinant human 5-LOX) [nM]	IC50 [1] [nM]	Compound	inhibition at 3 mg/kg [2] [%]
114	996	CNC(=O)C1(c2cc(F)cc(Sc3ccc(-c4ccnn4C)cc3)c2F)CCOCC1 [Example 19, 4-(2,5-difluoro-3-{[4-(1-methyl-1H-pyrazol-5-yl)phenyl]thio}phenyl)-N-methyltetrahydro-2H-pyran-4-carboxamide]	95.3
65.7	350	C[C@H]1C[C@@](C#N)(c2cccc(Sc3ccc(C(=O)c4ccnn4C)cc3)c2F)CCO1 [Example 53, (2S,4R)+(2-fluoro-3-(4-(1-methyl-1H-pyrazole-5-carbonyl)phenylthio)phenyl)-2-methyl-tetrahydro-2H-pyran-4-carbonitrile]	94
660	196	Cn1nccc1-c1ccc(Sc2cccc(C3(C(N)=O)CCOCC3)c2)cc1C#N [Example 2, 4-(3-{[3-Cyano-4-(1-methyl-1H-pyrazol-5-yl)phenyl]thio}phenyl)tetrahydro-2H-pyran-4-carboxamide]	0
23.8	407	C[C@H]1C[C@@](C(N)=O)(c2cccc(Sc3ccc(C(=O)c4ccnn4C)cc3)c2)CCO1 [Example 39, (2S,4R)-2-methyl-4-(3-(4-(1-methyl-1H-pyrazole-5-carbonyl)phenylthio)phenyl)-tetrahydro-2H-pyran-4-carboxamide]	66
20.7	272	C[C@H]1C[C@@](C(N)=O)(c2cccc(Sc3cnc(Oc4ccnn4C)c(Cl)c3)c2F)CCO1 [Example 52, (2S,4R)-4-(3-(5-chloro-6-(1-methyl-1H-pyrazol-5-yloxy)pyridin-3-ylthio)-2-fluorophenyl)-2-methyl-tetrahydro-2H-pyran-4-carboxamide]	100
110	492	Cn1nccc1Cc1ccc(Sc2cccc(C3(C(N)=O)CCOCC3)c2)cc1F [Example 33, 4-{3-[3-Fluoro-4-(2-methyl-2H-pyrazol-3-ylmethyl)phenylsulfanyl]-phenyl}-tetrahydro-pyran-4-carboxylic acid amide]	76
21	227	C[C@H]1C[C@@](C(N)=O)(c2ccc(F)c(Sc3ccc(-c4ccnn4C)cc3)c2F)CCO1 [Example 28, (2S,4R)-4-(2,4-difluoro-3-(4-(1-methyl-1H-pyrazol-5-yl)phenylthio)phenyl)-2-methyl-tetrahydro-2H-pyran-4-carboxamide]	100
16.4	185	C[C@H]1C[C@@](C(N)=O)(c2cccc(Sc3ccc(-c4ccnn4C)cc3)c2)CCO1 [Example 22, (2S,4R)-2-methyl-4-(3-(4-(1-methyl-1H-pyrazol-5-yl)phenylthio)phenyl)-tetrahydro-2H-pyran-4-carboxamide]	99.5
554	203	Cn1nccc1Oc1ccc(Sc2cccc(C3(C(N)=O)CCOCC3)c2)cc1C#N [Example 51, 4-[3-({3-cyano-4-[(1-methyl-1H-pyrazol-5-yl)oxy]phenyl}thio)phenyl]tetrahydro-2H-pyran-4-carboxamide]	77
